Data taken from US7880042B2, “Tetrahydronaphthalene derivatives, methods for the production thereof, and the use thereof as antiphlogistics” (Bayer Schering Pharma AG, priority 2006, dated 2011).
Where two headings read alike, the source gives them in different places.

What was measured:
[1] = test system: tyrosine aminotransferase (TAT); assay: TAT induction in vitro; assay type: cell-based; settings: for Emax: read-out: TAT eff
[2] = test system: lipopolysaccharide (LPS)-initiated secretion of the cytokine IL-8 in the human THP-1 monocyte cell line; assay: Inhibition of LPS-initiated IL-8 secretion in THP-1 cells; assay type: cell-based; settings: for IC50 / Emax: Homo sapiens; for IC50: read-out: IL8 IC50; for Emax: read-out: IL8 eff; for Diss. (TATEC50/IL8IC50): ratio TAT EC50 / IL8 IC50
[3] = prior-art compounds (WO2005/034939)
[4] = THP-1, prior-art compounds (WO2005/034939)
[5] = inventive stereoisomers, efficacy of TAT induction
[6] = inventive stereoisomers, in vitro TAT induction
[7] = THP-1, inventive stereoisomers, efficacy of IL-8 inhibition
[8] = inventive stereoisomers, LPS-initiated IL-8 secretion, THP-1 cells
[9] = inventive stereoisomers, in vitro TAT induction, cells printed in μM

`CC1(C)CC(O)(C(F)(F)F)C(Nc2cc(F)cc3[nH]ncc23)c2ccc(F)c(O)c21` (centres unmarked) [reference compound] was tested, and the EC50 [1, 3] was 0.0043 µM, the Emax [1, 3] was 100% and the IC50 [2, 4] was 20 nM. The Emax [2, 4] was 88% and the “Diss. (TATEC50/IL8IC50)” value [2, 3] was 0.22.

`CC[C@@H]1C[C@](O)(C(F)(F)F)[C@@H](Nc2cc(F)cc3nc(C)ncc23)c2ccc(F)c(O)c21` [Example 30A, (5S,6R,8R)-8-Ethyl-2-fluoro-5-[(7-fluoro-2-methylquinazolin-5-yl)amino]-6-(trifluoromethyl)-5,6,7,8-tetrahydronaphthalene-1,6-diol] was tested, and the Emax [1, 5] was 95%, the EC50 [1, 6] was 0.017 µM and the Emax [2, 7] was 89%. For the same compound, the IC50 [2, 8] was 6.6 nM and the “Diss. (TATEC50/IL8IC50)” value ([2]; inventive stereoisomers) was 2.8.

Compound `CCC1CC(O)(C(F)(F)F)C(Nc2cccc3nc(C)ccc23)c2ccc(F)c(O)c21` (centres unmarked) [reference compound] has an EC50 [1, 3] of 0.14 µM, an Emax [1, 3] of 88% and an IC50 [2, 4] of 220 nM. The Emax [2, 4] was 69% and the “Diss. (TATEC50/IL8IC50)” value [2, 3] was 0.64.

`Cc1ncc2c(NC3c4cc(Cl)c(F)c(O)c4C(C)(C)CC3(O)C(F)(F)F)cc(F)c(F)c2n1` (centres unmarked) [reference compound] showed an EC50 [1, 3] of 0.0042 µM, an Emax [1, 3] of 100% and an IC50 [2, 4] of 31 nM. For the same compound, the Emax [2, 4] was 96% and the “Diss. (TATEC50/IL8IC50)” value [2, 3] was 0.14.

For `CC[C@@H]1C[C@](O)(C(F)(F)F)[C@@H](Nc2cccc3c(=O)[nH]ccc23)c2cc(Cl)c(C)c(O)c21` [Example 121B, 5-{[(1S,2R,4R)-7-chloro-2,5-Dihydroxy-6-methyl-4-ethyl-2-(trifluoromethyl)-1,2,3,4-tetrahydronaphthalen-1-yl]amino}-2H-quinolin-1-one], the Emax [1, 5] was 99%, the EC50 [1, 6] was 0.3 µM and the Emax [2, 7] was 88%. The IC50 [2, 8] was 3.7 nM and the “Diss. (TATEC50/IL8IC50)” value ([2]; inventive stereoisomers) was 81.

Work on `CC[C@@H]1C[C@](O)(C(F)(F)F)[C@@H](Nc2cccc3[nH]c(=O)ccc23)c2cc(F)c(F)c(O)c21` [Example 54, 5-{[(1α,2α,4β)-4-ethyl-6,7-difluoro-2,5-dihydroxy-2-(trifluoromethyl)-1,2,3,4-tetrahydronaphthalen-1-yl]amino}quinolin-2(1H)-one] yielded an Emax [1, 5] of 76%, an EC50 [1, 6] of 0.49 µM and an Emax [2, 7] of 78%. For the same compound, the IC50 [2, 8] was 5.7 nM and the “Diss. (TATEC50/IL8IC50)” value ([2]; inventive stereoisomers) was 86.

Work on `CC[C@@H]1C[C@](O)(C(F)(F)F)[C@@H](Nc2cc(F)cc3nc(C)ncc23)c2cc(F)c(F)c(O)c21` [Example 51A, (5α,6α,8β)-8-Ethyl-2,3-difluoro-5-[(7-fluoro-2-methylquinazolin-5-yl)amino]-6-(trifluoromethyl)-5,6,7,8-tetrahydronaphthalene-1,6-diol] yielded an Emax [1, 5] of 81%, an EC50 [1, 6] of 0.15 µM and an Emax [2, 7] of 72%. For the same compound, the IC50 [2, 8] was 13 nM and the “Diss. (TATEC50/IL8IC50)” value ([2]; inventive stereoisomers) was 11.5.

`Cc1ccc2c(NC3c4ccc(F)c(O)c4C(C(C)C)CC3(O)C(F)(F)F)cccc2n1` (centres unmarked) [Example 65, 2-Fluoro-5-[(2-methylquinolin-5-yl)amino]-8-(Prop-2-yl)-6-(trifluoromethyl)-5,6,7,8-tetrahydronaphthalene-1,6-diol] was tested, and the Emax [1, 5] was 73%, the EC50 [1, 9] was 1 µM and the Emax [2, 7] was 58%. The IC50 [2, 8] was 38 nM and the “Diss. (TATEC50/IL8IC50)” value ([2]; inventive stereoisomers) was 26.3.

With `Cc1ccc2c(N[C@H]3c4ccc(F)c(O)c4[C@H](C)C[C@]3(O)C(F)(F)F)cccc2n1` [Example 1] the Emax [1, 5] was 62%, the EC50 [1, 9] was 1 µM and the Emax [2, 7] was 79%. For the same compound, the IC50 [2, 8] was 22 nM and the “Diss. (TATEC50/IL8IC50)” value ([2]; inventive stereoisomers) was 45.5.

`Cc1ncc2c(NC3c4cc(C)c(F)c(O)c4C(C)(C)CC3(O)C(F)(F)F)ccc(F)c2n1` (centres unmarked) [reference compound] gave an EC50 [1, 3] of 0.0065 µM, an Emax [1, 3] of 100% and an IC50 [2, 4] of 40 nM. The Emax [2, 4] was 79% and the “Diss. (TATEC50/IL8IC50)” value [2, 3] was 0.16.

`CC[C@H]1C[C@](O)(C(F)(F)F)[C@@H](Nc2cc(F)cc3[nH]c(=O)ccc23)c2ccc(Cl)c(O)c21` (stereo in doubt) [Example 101, 5-{[(1α,2α,4α)-6-Chloro-2,5-Dihydroxy-4-ethyl-2-(trifluoromethyl)-1,2,3,4-tetrahydronaphthalen-1-yl]amino}-7-fluoro-1H-quinolin-2-one] was tested, and the Emax [1, 5] was 97%, the EC50 [1, 6] was 0.074 µM and the Emax [2, 7] was 92%. The IC50 [2, 8] was 1.8 nM and the “Diss. (TATEC50/IL8IC50)” value ([2]; inventive stereoisomers) was 41.

Compound `CC[C@@H]1C[C@](O)(C(F)(F)F)[C@@H](Nc2cccc3nc(C)ncc23)c2ccc(F)c(O)c21` [Example 29A, (5α,6α,8β)-8-Ethyl-2-fluoro-5-[(2-methylquinazolin-5-yl)amino]-6-(trifluoromethyl)-5,6,7,8-tetrahydronaphthalene-1,6-diol] has an Emax [1, 5] of 95%, an EC50 [1, 6] of 0.12 µM and an Emax [2, 7] of 77%. For the same compound, the IC50 [2, 8] was 16 nM and the “Diss. (TATEC50/IL8IC50)” value ([2]; inventive stereoisomers) was 7.5.

`Cc1ncc2c(NC3c4ccc(Cl)c(O)c4C(C)(C)CC3(O)C(F)(F)F)ccc(F)c2n1` (centres unmarked) [reference compound] gave an EC50 [1, 3] of 0.003 µM, an Emax [1, 3] of 98% and an IC50 [2, 4] of 22 nM. For the same compound, the Emax [2, 4] was 73% and the “Diss. (TATEC50/IL8IC50)” value [2, 3] was 0.14.

For `CC[C@H]1C[C@](O)(C(F)(F)F)[C@@H](Nc2cccc3[nH]c(=O)ccc23)c2ccc(F)c(O)c21` (stereo in doubt) [Example 43, 5-{[(1α,2α,4α)-4-Ethyl-6-fluoro-2,5-dihydroxy-2-(trifluoromethyl)-1,2,3,4-tetrahydronaphthalen-1-yl]amino}quinolin-2(1H)-one], the Emax [1, 5] was 100%, the EC50 [1, 6] was 0.043 µM and the Emax [2, 7] was 88%. For the same compound, the IC50 [2, 8] was 12 nM and the “Diss. (TATEC50/IL8IC50)” value ([2]; inventive stereoisomers) was 3.6.

For `CC1(C)CC(O)(C(F)(F)F)C(Nc2cccc3[nH]c(=O)ccc23)c2ccc(F)c(O)c21` (centres unmarked) [reference compound], the EC50 [1, 3] was 0.0038 µM, the Emax [1, 3] was 92% and the IC50 [2, 4] was 14 nM. For the same compound, the Emax [2, 4] was 68% and the “Diss. (TATEC50/IL8IC50)” value [2, 3] was 0.27.

In the case of `CCC1CC(O)(C(F)(F)F)C(Nc2cccc3[nH]c(=O)ccc23)c2cc(F)cc(O)c21` (centres unmarked) [Example 75, 5-{[4-Ethyl-7-fluoro-2,5-dihydroxy-2-(trifluoromethyl)-1,2,3,4-tetrahydronaphthalen-1-yl]amino}quinolin-2(1H)-one], the Emax [1, 5] is reported as 89%, the EC50 [1, 6] is reported as 0.12 µM and the Emax [2, 7] is reported as 68%. The IC50 [2, 8] was 7.1 nM and the “Diss. (TATEC50/IL8IC50)” value ([2]; inventive stereoisomers) was 16.9.
